What was measured:
Type in all cases: in vivo
Myzus persicae [1] = assay: Myzus persicae oral test; settings: 120 h, application rate 4 ppm, after 5 days, read-out: efficacy
Description: [table] To produce a suitable active ingredient formulation, 1 part by weight of active ingredient is dissolved with the stated parts by weight of solvent and made up to the desired concentration with water. 50 μl of the active ingredient formulation are transferred into microtitre plates and made up to a final volume of 200 μl with 150 μl of IPL41 insect medium (33%+15% sugar). Subsequently, the plates are sealed with parafilm, which a mixed population of green peach aphids (Myzus persicae) within a second microtitre plate is able to puncture and imbibe the solution. After 5 days, the efficacy in % is determined. 100% means that all the aphids have been killed; 0% means that no aphids have been killed.

Phaedon cochleariae = Phaedon cochleariae spray test; settings: 168 h, application rate 100 g/ha, larvae, after 7 days, read-out: efficacy
Description: (§1) [table] To produce a suitable active ingredient formulation, 1 part by weight of active ingredient is dissolved with the specified parts by weight of solvent and made up to the desired concentration with water containing an emulsifier concentration of 1000 ppm. To produce further test concentrations, the formulation is diluted with emulsifier-containing water. Discs of Chinese cabbage leaves (Brassica pekinensis) are sprayed with an active ingredient formulation of the desired concentration and, after drying, populated with larvae of the mustard beetle (Phaedon cochleariae). After 7 days, the efficacy in % is determined. 100% means that all the beetle larvae have been killed; 0% means that no beetle larvae have been killed.

Spodoptera frugiperda = Spodoptera frugiperda spray test; settings: foliar, 168 h, application rate 100 g/ha, maize leaf discs, caterpillars, after 7 days, read-out: efficacy
Description: as §1, with “water. Leaf discs” for “water. Discs”, “of maize (Zea mays)” for “of Chinese cabbage leaves (Brassica pekinensis)”, “with caterpillars” for “with larvae”, “the fall armyworm (Spodoptera frugiperda).” for “the mustard beetle (Phaedon cochleariae).”, “the caterpillars” for “the beetle larvae”, “no caterpillar has” for “no beetle larvae have”

Myzus persicae [2] = assay: Myzus persicae spray test; settings: foliar, 120 h, application rate 100 g/ha, Chinese cabbage leaf discs, after 5 days, read-out: efficacy
Description: as §1, with “pekinensis) infested by all stages of the green peach aphid (Myzus persicae)” for “pekinensis)”, “concentration.” for “concentration and, after drying, populated with larvae of the mustard beetle (Phaedon cochleariae).”, “5” for “7”, “aphids” for “beetle larvae”

| SMILES | pest or weed control at 4 ppm (Myzus persicae [1]) [%] | pest or weed control at 100 g/ha (Phaedon cochleariae) [%] | pest or weed control at 100 g/ha (Spodoptera frugiperda) [%] | pest or weed control at 100 g/ha (Myzus persicae [2]) [%] |
| --- | --- | --- | --- | --- |
| CCS(=O)(=O)c1c(-c2nc3cc(C(F)(F)F)ncc3n2C)nc(Br)n1C(C)C [Example I-002] | 100 | – | – | – |
| CCS(=O)(=O)c1c(-n2cc3cnc(C(F)(F)F)cc3n2)nc(-c2ccc(C(F)(F)F)cc2)n1C [Example I-097] | 100 | 100 | 100 | – |
| CCS(=O)(=O)c1c(-c2nc3cc(C(F)(F)F)ncc3n2C)nc(-c2cnn(CC(F)(F)F)c2)n1C [Example I-067] | 100 | 100 | – | 100 |
| CCS(=O)(=O)c1c(-c2nc3cc(C(F)(F)F)ncc3n2C)nc(-c2cn[nH]c2)n1C [Example I-034] | 100 | – | – | 90 |
| CCS(=O)(=O)c1c(-c2nc3cc(C(F)(F)F)ncc3n2C)nc(-c2cc(Cl)sc2Cl)n1C [Example I-031] | 100 | – | – | – |
| CCS(=O)(=O)c1c(-c2nc3cc(C(F)(F)F)ncc3n2C)nc(Br)n1C [Example I-004, 2-[2-Bromo-5-(ethylsulfonyl)-1-methyl-1H-imidazol-4-yl]-3-methyl-6-(trifluoromethyl)-3H-imidazo[4,5-c]pyridine] | 100 | – | – | – |
| CCS(=O)(=O)c1c(-c2nc3cc(C(F)(F)F)ncc3n2C)nc(-c2ccc(Cl)c(C#N)c2)n1C [Example I-079] | 100 | 83 | – | 90 |
| CCS(=O)(=O)c1c(-c2nc3cc(C(F)(F)F)ncc3n2C)nc(-c2cncn2C)n1C [Example I-052] | 100 | – | – | – |
| CCS(=O)(=O)c1c(-c2nc3cc(C(F)(F)F)ncc3n2C)nc(-c2nccn2C)n1C [Example I-053] | 100 | – | – | – |
| CC(C)S(=O)(=O)c1c(-c2nc3cc(C(F)(F)F)ncc3n2C)nc(-c2ccn(C)n2)n1C [Example I-061] | 100 | 100 | – | 100 |
| CCS(=O)(=O)c1c(-c2nc3cc(C(F)(F)F)ncc3n2C)nc(-c2ccc(C(F)(F)F)cc2C)n1C [Example I-078] | 90 | 100 | 100 | – |
| CCS(=O)(=O)c1c(-c2nc3cc(C(F)(F)F)ncc3n2C)nc(C2=CCC(C(F)(F)F)CC2)n1C (centres unmarked) [Example I-072] | 100 | – | – | – |
| CCS(=O)(=O)c1c(-c2nc3cc(C(F)(F)F)nnc3n2C)nc(Br)n1C [Example I-056] | 100 | – | – | – |
| CCS(=O)(=O)c1c(-c2nc3cc(C(F)(F)F)ncc3n2C)nc(C)n1C [Example I-064] | 100 | 83 | – | 100 |
| CCS(=O)(=O)c1c(-c2nc3cc(C(F)(F)F)ncc3n2C)nc(-c2cncs2)n1C [Example I-051] | 100 | – | – | 90 |
| CCS(=O)(=O)c1c(-c2nc3cc(C(F)(F)F)ncc3n2C)nc(-n2ccnc2)n1C [Example I-028] | 100 | 100 | – | 90 |
| CCS(=O)(=O)c1c(-c2nc3cc(C(F)(F)F)ncc3n2C)nc(C(=O)NCC(F)(F)F)n1C [Example I-037] | 90 | – | – | – |
| CCS(=O)(=O)c1c(-c2nc3cc(C(F)(F)F)ncc3n2C)nc(-c2cc(C(F)(F)F)nn2C)n1C [Example I-068] | 100 | 100 | – | – |
| CCS(=O)(=O)c1c(-c2nc3cc(C(F)(F)F)ncc3n2C)nc(-c2cccs2)n1C [Example I-044] | 100 | – | – | – |
| CCS(=O)(=O)c1c(-c2nc3cc(C(F)(F)F)ncc3n2C)nc(-c2ccc(CC#N)cc2)n1C [Example I-065] | 100 | – | – | 100 |

| SMILES | pest or weed control at 4 ppm (Myzus persicae [1]) [%] | pest or weed control at 100 g/ha (Phaedon cochleariae) [%] | pest or weed control at 100 g/ha (Spodoptera frugiperda) [%] | pest or weed control at 100 g/ha (Myzus persicae [2]) [%] |
| --- | --- | --- | --- | --- |
| CCS(=O)(=O)c1c(-c2nc3cc(C(F)(F)F)ncc3n2C)nc(C#CC2CC2)n1C [Example I-024] | 90 | 100 | 100 | – |
| CCS(=O)(=O)c1c(-c2nc3cc(C(F)(F)F)ncc3n2C)nc(C(=S)NC)n1C [Example I-047] | 100 | – | – | 100 |
| CCS(=O)(=O)c1c(-n2cc3cnc(C(F)(F)F)cc3n2)nc(-c2ccc(Cl)cc2)n1C [Example I-093] | 100 | 100 | 100 | – |
| CCS(=O)(=O)c1c(-c2nc3cc(C(F)(F)F)ncc3n2C)nc(C(=S)N(C)C)n1C [Example I-048] | 100 | – | – | 90 |
| CCS(=O)(=O)c1c(-c2nc3cc(C(F)(F)F)ncc3n2C)nc(-c2ccnn2C)n1C [Example I-062] | 100 | 100 | – | 100 |
| CCS(=O)(=O)c1c(-c2nc3cc(C(F)(F)F)ncc3n2C)nc(CCC2CC2)n1C [Example I-085, 2-[2-(2-Cyclopropylethyl)-5-(ethylsulfonyl)-1-methyl-1H-imidazol-4-yl]-3-methyl-6-(trifluoromethyl)-3H-imidazo[4,5-c]pyridine] | 100 | – | – | 90 |
| CCS(=O)(=O)c1c(-c2nc3cc(C(F)(F)F)ncc3n2C)nc(C2=CCCCC2)n1C [Example I-071] | – | – | – | 90 |
| CCc1nc(-c2nc3cc(C(F)(F)F)ncc3n2C)c(S(=O)(=O)CC)n1C [Example I-084] | 100 | – | – | 90 |
| CCS(=O)(=O)c1c(-n2cc3ncc(C(F)(F)F)cc3n2)nc(-c2ccc(Cl)cc2)n1C [Example I-094] | 100 | 83 | 100 | – |
| CCS(=O)(=O)c1c(-n2cc3cnc(C(F)(F)F)cc3n2)nc(-c2ccccc2)n1C [Example I-095] | 100 | – | 100 | 90 |
| CCS(=O)(=O)c1c(-c2nc3cc(C(F)(F)F)ncc3n2C)nc(C(=O)OC)n1C [Example I-036, Methyl 5-(ethylsulfonyl)-1-methyl-4-[3-methyl-6-(trifluoromethyl)-3H-imidazo[4,5-c]pyridin-2-yl]-1H-imidazole-2-carboxylate] | 100 | 100 | – | 100 |
| CCS(=O)(=O)c1c(-c2nc3cc(C(F)(F)F)ncc3n2C)nc(-c2cccn2C)n1C [Example I-032] | 100 | – | – | – |
| CCSc1c(-c2nc3cc(C(F)(F)F)ncc3n2C)nc(C(=O)OC)n1C [Example I-035, Methyl 5-(ethylsulfanyl)-1-methyl-4-[3-methyl-6-(trifluoromethyl)-3H-imidazo[4,5-c]pyridin-2-yl]-1H-imidazole-2-carboxylate] | – | 83 | – | – |
| CCS(=O)(=O)c1c(-c2nc3cc(C(F)(F)F)ncc3n2C)nc(C#N)n1C [Example I-045, 5-(Ethylsulfonyl)-1-methyl-4-[3-methyl-6-(trifluoromethyl)-3H-imidazo[4,5-c]pyridin-2-yl]-1H-imidazole-2-carbonitrile] | 100 | – | – | – |
| CCS(=O)(=O)c1c(-c2nc3cc(C(F)(F)F)ncc3n2C)nc(-c2cnc(Cl)n2C)n1C [Example I-059] | 100 | 100 | – | 100 |
| CCS(=O)(=O)c1c(-c2nc3cc(C(F)(F)F)ncc3n2C)nc(-c2ccc(C#N)c(C(F)(F)F)c2)n1C [Example I-080] | 100 | 100 | – | – |
| CCS(=O)(=O)c1c(-c2nc3cc(C(F)(F)F)ncc3n2C)nc(-n2cccn2)n1C [Example I-026] | 100 | 100 | – | 90 |
| CCS(=O)(=O)c1c(-c2nc3cc(C(F)(F)F)ncc3n2C)nc(-c2cnccc2F)n1C [Example I-017] | 100 | – | – | 100 |
| CCS(=O)(=O)c1c(-c2nc3cc(C(F)(F)F)ncc3n2C)nc(-c2cnc(C)s2)n1C [Example I-058] | 100 | – | – | 90 |
